In this assay the target is Protein kinase C (PKC). The experiment in a line: Displacement of radiolabeled PDBU from PKC in rat forebrain. The assay is classed as tissue-based.

Molecules are shown by their SMILES. ≈ marks a conversion by molar mass, not a printed value.

On to `CCCCCCCCCCCCCC(=O)O[C@@H]1[C@@H](C)[C@@]2(O)[C@@H](C=C(CO)C[C@]3(OC)C(=O)C(C)=C[C@@H]23)[C@@H]2C(C)(C)[C@]12OC(C)=O`, for which the Ki amounted to 500 nM. `C=CC(C)(C)c1ccc2c3c(c[nH]c13)C[C@@H](CO)NC(=O)[C@H]([C@@H](C)CC)N2C` [METHYLPENDOLMYCIN] registered an IC50 of 0.0135 µg/mL (≈ 0.0352 µM).

In general, Ki refers to a dissociation constant, usually derived from enzyme kinetics or from competition with a known ligand. For orientation: IC50 means the midpoint of a concentration-inhibition curve. The low end stands for greater potency in that assay, the high end for weaker potency in that assay.
